Experiments:
BALB/c mice [1] = test: Light dependence of the vigabatrin-elicited retinal toxicity (darkness vs 12h light/dark cycle); type: in vivo
Procedure: (§1) BALB/c mice (16 treated, 10 controls) were purchased from Janvier (Le Genest-St-lsle, France) at six weeks. VGB dissolved in 0.9%
(§2) NaCl at 100 mg/m1 was intraperitoneally injected daily for 30 days at a final concentration of 250 mg/kg as described for animal treatment of epilepsy (Andre V, Ferrandon A, Marescaux C, Nehlig A. Vigabatrin protects against hippocampal damage but is not antiepileptogenic in the lithium-pilocarpine model of temporal lobe epilepsy. Epilepsy Res. 2001;47:99-117). This dose was slightly higher than that prescribed to adult patient ([…]), children (100 mg/kg), or infants ([…]) (Bialer M, Johannessen S I, Kupferberg H J et al. Progress report on new antiepileptic drugs: a summary of the Fifth Eilat Conference (EILAT V). Epilepsy Res. 2001;43:11-58).
(§3) Eye cups were fixed overnight at 4° C. in 4% (wt/vol) paraformaldehyde in phosphate buffered saline (PBS) 0.01 M, pH 7.4. After cryoprotection in PBS containing successively 10%, 20% and 30% sucrose at 4° C., the tissue was embedded in OCT (Labonord, Villeneuve d'Ascq, France). Vertical sections (8-10 μm thickness) were permeabilized for 5 minutes in PBS containing 0.1% Triton X-100 (Sigma, St. Louis, Mo.), rinsed, and incubated in PBS containing 1% bovine serum albumin (Eurobio, Les-Ulis, France), 0.1% Tween 20 (Sigma), and 0.1% sodium azide (Merck, Fontenay-Sous-Bois, France) for 2 hours at room temperature. The primary antibody added to the solution was incubated for 2 hours at room temperature. The polycolonal antibodies were directed against the protein kinase C alpha (PKCα) (1:2000, Sigma), VGluT1 (1:2000, Chemicon), Goα (K-20; 1:100, Santa Cruz), calbindin D-28K (1:500, Chemicon), mouse cone arrestin/ Luminaire junior (LUMIj) (1:20,000, ^27). The monoclonal antibodies were directed against Goα (1:2000, Chemicon), bassoon (1:100, StressGen) and calbindin D-28K (1:500, Sigma). After rinses, sections were incubated with the secondary antibody, goat anti-rabbit IgG or rabbit anti-mouse IgG conjugated to either Alexa TM594 or Alexa TM488 (1:500, Molecular Probes, Eugene, Oreg.) for 2 hours. The dye, diamidiphenyl-indole (DAPI) was added to the last incubated solutions. Sections were rinsed, mounted with Fluorsave reagent (Calbiochem, San Diege, Calif.) and viewed with a Leica microscope (LEICA DM 5000B) equipped with a Ropper scientific camera (Photometrics cool SNAP TM FX).
Albino rats only are sensitive to the VGB-elicited retinal toxicity (Butler W H, Ford G P, Newberne J W. A study of the effects of vigabatrin on the central nervous system and retina of Sprague Dawley and Lister-Hooded rats. Toxicol Pathol. 1987;15:143-148). […]

BALB/c mice [2] = test: Retinal histology / immunolabelling of VGB-treated mice; type: in vivo; settings: VGB 250 mg/kg i.p. daily for 30 days
Procedure: as §1, §2, §3

rats = settings: cited from earlier work
patients = patients under therapeutical treatment; cited from earlier work
[3] = animals maintained in a dark room throughout the treatment

## C=CC(N)CCC(=O)O (stereo not shown) [VGB, 4-amino-5-hexenoic acid]
BALB/c mice [1]; [3]
  Bipolar cell dendritic growth in the ONL: found not to grow dendrites in the ONL
  Photoreceptor terminal withdrawal in the ONL: did not retract their terminals in the ONL
BALB/c mice [1]; animals maintained in darkness
  Other retinal damages like ONL disorganization: not observed
BALB/c mice [1]; animals under the 12h light/dark cycle
  Bipolar cell dendritic growth and photoreceptor terminal withdrawal: showed the bipolar cell dendritic growth and the photoreceptor terminal withdrawal
BALB/c mice [2]; albino mice
  Areas with a highly disorganized outer nuclear layer (ONL), animals affected: 5 of 16
BALB/c mice [2]; mice
  Cone photoreceptor terminals, cone arrestin and Goα immunolabelling: cone terminals remained in the OPL
  Cone photoreceptors, cone arrestin immunolabelling: cone outer segments had disappeared
  Contact of rod photoreceptor terminals with postsynaptic neurons, VGLUT1/Goα and bassoon/PKCα double immunolabelling: a few synaptic ribbons were not contacted by a rod bipolar cell dendrite
  Horizontal cell dendrites, calbindin immunolabelling: horizontal cells extended their dendrites deep into the ONL
  ON bipolar cell dendrites, Goα immunolabelling: extended their dendrites deep into the ONL
  Photoreceptor synaptic ribbon, bassoon immunolabelling: punctuate labelling was observed to penetrate deep into the ONL
  Photoreceptor synaptic vesicles, VGLUT1 immunolabelling: observed deep into the ONL
  Rod and cone ON bipolar cell plasticity, PKCα and Goα double immunolabelling: both rod and cone ON bipolar cells underwent plasticity
BALB/c mice [2]; mice, vs control albino mice
  GFAP staining of glial Muller cells: not increased
rats
  Major retinal changes: retinal architecture disorganization, a major glial reaction, cone damages and photoreceptor apoptosis
patients
  Undesirable effects on vision: irreversible constriction of the visual field

Source: patent publication US20100062987A1, “ANTICONVULSIVE PHARMACEUTICAL COMPOSITIONS” (INSERM (Institut National de la Sante et de la Recherche …, priority 2006, published 2010)
